IC50 data for 9 compounds are collected here from patent publication US11306079B2, “3-(5-amino-pyrazin-2-yl)-benzenesulfonamide derivatives and related compounds as PI3K-gamma kinase inhibitors” (Incyte Corporation, priority 2017, dated 2022).

The structures appear in SMILES notation. Where a name gives a salt, the structure may show the parent alone.

The target in experiment [1] is PI3Kδ (p110δ/p85α) Recombinant Human Protein (Homo sapiens (Human), UniProt O00329). In words: PI3Kδ Scintillation Proximity Assay. The class given is biochemical. To be noted: 20 μM PIP2, 2 μM ATP, 3.4 nM PI3Kδ, 120 min, room temperature. The text has this: Example C. PI3Kδ Scintillation Proximity Assay
[γ-^33P]ATP (10 mCi/mL) and Wheat Germ Agglutinin (WGA) YSi SPA Scintillation Beads was purchased from Perkin-Elmer (Waltham, Mass.). Lipid kinase substrate, D-myo-Phosphatidylinositol 4,5-bisphosphate (PtdIns(4,5)P2)D (+)-sn-1,2-di-O-octanoylglyceryl, 3-O-phospho linked (PIP2), CAS 204858-53-7, was purchased from Echelon Biosciences (Salt Lake City, Utah). PI3Kδ (p110δ/p85α) Recombinant Human Protein was purchased from Eurofins (St Charles, Mo.). ATP, MgCl2, DTT, EDTA, MOPS and CHAPS were purchased from Sigma-Aldrich (St. Louis, Mo.).
(§1) The kinase reaction was conducted in polystyrene 384-well Greiner Bio-one white plate from Thermo Fisher Scientific in a final volume of 25 μL. Inhibitors were first diluted serially in DMSO and added to the plate wells before the addition of other reaction components. The final concentration of DMSO in the assay was 2%. The PI3Kδ assay was carried out at room temperature in 20 mM MOPS, pH 6.7, 10 mM MgCl2, 5 mM DTT and CHAPS 0.03%. Reactions were initiated by the addition of ATP, the final reaction mixture consisted of 20 μM PIP2, 2 μM ATP, 0.5 μCi [γ-^33P] ATP, 3.4 nM PI3Kδ. Reactions were incubated for 120 min and terminated by the addition of 40 μL SPA beads suspended in quench buffer: 163 mM potassium phosphate pH 7.8, 20% glycerol, 25 mM EDTA. The final concentration of SPA beads is 1.0 mg/mL. After the plate sealing, plates were shaken overnight at room temperature and centrifuged at 1500 rpm for 10 min, the radioactivity of the product was determined by scintillation counting on Topcount (Perkin-Elmer). IC50 determination was performed by fitting the curve of percent of the solvent control activity versus the log of the inhibitor concentration using the GraphPad Prism 6.0 software.
In general terms: Scintillation proximity formats need no separation of bound from free tracer.

Experiment [2] addresses PI3Kγ (p110γ) Recombinant Human Protein (Homo sapiens (Human), UniProt P48736). In words: PI3K-γ Scintillation Proximity Assay. The class given is biochemical. To be noted: 20 μM PIP2, 2 μM ATP, 13 nM PI3Kγ, 120 min, room temperature.
Description: Example B. PI3K-γ Scintillation Proximity Assay
[γ-^33P]ATP (10 mCi/mL) and Wheat Germ Agglutinin (WGA) YSi SPA Scintillation Beads was purchased from Perkin-Elmer (Waltham, Mass.). Lipid kinase substrate, D-myo-Phosphatidylinositol 4,5-bisphosphate (PtdIns(4,5)P2)D (+)-sn-1,2-di-O-octanoylglyceryl, 3-O-phospho linked (PIP2), CAS 204858-53-7, was purchased from Echelon Biosciences (Salt Lake City, Utah). PI3Kγ (p110γ) Recombinant Human Protein was purchased from Life technology (Grand island, NY), ATP, MgCl2, DTT, EDTA, MOPS and CHAPS were purchased from Sigma-Aldrich (St. Louis, Mo.).
as §1, with “PI3Kγ” for “PI3Kδ”, “13” for “3.4”, “PI3Kγ.” for “PI3Kδ.”

PI3Kδ (p110δ/p85α) Recombinant Human Protein, sequence (O00329 whole entry): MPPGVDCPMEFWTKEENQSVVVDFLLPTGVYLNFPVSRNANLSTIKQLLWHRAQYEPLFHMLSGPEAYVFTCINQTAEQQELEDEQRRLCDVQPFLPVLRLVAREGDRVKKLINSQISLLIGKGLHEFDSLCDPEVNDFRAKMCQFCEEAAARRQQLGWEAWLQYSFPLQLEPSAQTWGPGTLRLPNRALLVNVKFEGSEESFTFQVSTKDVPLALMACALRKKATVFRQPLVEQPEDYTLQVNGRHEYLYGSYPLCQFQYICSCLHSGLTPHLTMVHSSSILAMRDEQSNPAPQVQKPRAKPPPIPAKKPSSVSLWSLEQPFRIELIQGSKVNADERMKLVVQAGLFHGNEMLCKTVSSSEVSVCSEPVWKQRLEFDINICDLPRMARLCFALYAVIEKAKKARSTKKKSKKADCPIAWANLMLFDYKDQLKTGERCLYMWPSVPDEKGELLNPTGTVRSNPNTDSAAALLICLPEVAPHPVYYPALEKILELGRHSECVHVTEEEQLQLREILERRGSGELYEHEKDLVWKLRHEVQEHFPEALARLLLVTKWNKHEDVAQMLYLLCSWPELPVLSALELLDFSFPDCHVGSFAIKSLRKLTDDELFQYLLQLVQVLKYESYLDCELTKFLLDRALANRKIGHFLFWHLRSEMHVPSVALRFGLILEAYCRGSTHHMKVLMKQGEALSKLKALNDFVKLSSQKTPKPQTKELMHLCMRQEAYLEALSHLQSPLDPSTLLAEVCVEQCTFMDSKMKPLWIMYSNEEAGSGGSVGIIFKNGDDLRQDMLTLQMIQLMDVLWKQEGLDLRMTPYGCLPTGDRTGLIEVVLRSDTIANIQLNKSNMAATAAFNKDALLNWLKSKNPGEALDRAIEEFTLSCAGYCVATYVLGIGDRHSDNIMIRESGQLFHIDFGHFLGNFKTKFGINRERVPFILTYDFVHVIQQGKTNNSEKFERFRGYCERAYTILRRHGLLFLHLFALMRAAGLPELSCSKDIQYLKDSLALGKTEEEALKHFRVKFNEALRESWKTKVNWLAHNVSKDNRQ
PI3Kδ (p110δ/p85α) Recombinant Human Protein, sequence (P27986 whole entry partner): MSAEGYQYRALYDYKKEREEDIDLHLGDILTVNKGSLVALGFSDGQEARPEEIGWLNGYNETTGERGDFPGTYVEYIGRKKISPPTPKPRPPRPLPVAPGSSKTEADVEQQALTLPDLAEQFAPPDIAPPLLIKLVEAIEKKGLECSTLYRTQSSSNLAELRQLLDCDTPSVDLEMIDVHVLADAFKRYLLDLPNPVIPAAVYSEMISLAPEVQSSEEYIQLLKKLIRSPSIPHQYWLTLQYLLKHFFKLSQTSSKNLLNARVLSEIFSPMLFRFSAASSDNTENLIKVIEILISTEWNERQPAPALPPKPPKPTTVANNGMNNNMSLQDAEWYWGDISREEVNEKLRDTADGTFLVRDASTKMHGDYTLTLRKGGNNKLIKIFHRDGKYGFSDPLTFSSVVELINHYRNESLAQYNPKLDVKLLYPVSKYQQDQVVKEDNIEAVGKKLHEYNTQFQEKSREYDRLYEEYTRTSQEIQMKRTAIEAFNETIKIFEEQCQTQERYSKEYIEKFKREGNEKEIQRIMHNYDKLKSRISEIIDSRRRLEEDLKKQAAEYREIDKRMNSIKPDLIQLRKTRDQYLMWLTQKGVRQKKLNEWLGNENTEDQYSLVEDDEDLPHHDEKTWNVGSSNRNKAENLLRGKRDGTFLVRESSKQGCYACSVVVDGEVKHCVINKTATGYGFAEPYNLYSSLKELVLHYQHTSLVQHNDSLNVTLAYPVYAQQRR
PI3Kγ (p110γ) Recombinant Human Protein, sequence (P48736 whole entry): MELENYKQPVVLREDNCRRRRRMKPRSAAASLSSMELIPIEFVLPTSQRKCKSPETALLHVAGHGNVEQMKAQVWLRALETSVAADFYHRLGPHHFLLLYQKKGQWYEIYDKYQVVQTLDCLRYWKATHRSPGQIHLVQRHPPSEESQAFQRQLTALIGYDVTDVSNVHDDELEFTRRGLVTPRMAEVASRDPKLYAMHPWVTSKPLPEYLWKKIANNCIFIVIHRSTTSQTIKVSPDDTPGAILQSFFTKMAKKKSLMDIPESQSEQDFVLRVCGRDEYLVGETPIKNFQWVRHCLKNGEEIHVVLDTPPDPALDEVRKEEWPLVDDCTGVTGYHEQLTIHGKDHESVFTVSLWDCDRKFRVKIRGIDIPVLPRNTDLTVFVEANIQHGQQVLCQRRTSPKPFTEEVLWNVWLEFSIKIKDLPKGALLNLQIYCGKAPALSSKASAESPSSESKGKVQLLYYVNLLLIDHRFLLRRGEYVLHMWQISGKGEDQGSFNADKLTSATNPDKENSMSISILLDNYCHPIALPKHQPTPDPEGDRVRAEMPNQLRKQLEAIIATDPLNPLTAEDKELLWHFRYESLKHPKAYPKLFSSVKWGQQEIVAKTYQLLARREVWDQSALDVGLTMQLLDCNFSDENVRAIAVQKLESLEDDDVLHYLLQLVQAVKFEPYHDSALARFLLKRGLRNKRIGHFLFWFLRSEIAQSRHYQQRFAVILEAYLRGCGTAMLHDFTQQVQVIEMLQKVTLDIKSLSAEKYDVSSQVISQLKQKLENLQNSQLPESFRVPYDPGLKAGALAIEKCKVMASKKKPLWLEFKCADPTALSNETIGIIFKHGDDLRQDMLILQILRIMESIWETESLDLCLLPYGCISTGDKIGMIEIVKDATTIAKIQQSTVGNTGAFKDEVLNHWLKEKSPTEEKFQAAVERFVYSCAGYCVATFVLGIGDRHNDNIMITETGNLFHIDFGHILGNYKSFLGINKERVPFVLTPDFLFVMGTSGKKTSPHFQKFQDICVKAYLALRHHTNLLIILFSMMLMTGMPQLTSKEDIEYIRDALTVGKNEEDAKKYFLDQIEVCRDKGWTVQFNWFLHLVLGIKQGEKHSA

For `Cc1ccc(S(=O)(=O)NC23CCC(C#N)(C2)C3)cc1-c1cnc(N)c(-c2nn[nH]n2)n1` [Example 37, 3-(5-Amino-6-(2H-tetrazol-5-yl)pyrazin-2-yl)-N-(4-cyanobicyclo[2.1.1]hexan-1-yl)-4-methylbenzenesulfonamide Trifluoroacetate Salt], the values for the IC50 in experiment [1] and in experiment [2] were at least 2000 nM and at most 100 nM, respectively.

In the case of `Cc1ccc(S(=O)(=O)NC23CCC(CO)(CC2)OC3)cc1-c1cnc(N)c(-c2ccncc2C#N)n1` [Example 22, 3-(5-Amino-6-(3-cyanopyridin-4-yl)pyrazin-2-yl)-N-(1-(hydroxymethyl)-2-oxabicyclo[2.2.2]octan-4-yl)-4-methylbenzenesulfonamide trifluoroacetate salt], the IC50 (as a rule, the point on the concentration scale where inhibition reaches its midpoint) was at least 2000 nM in experiment [1] and below 2000 nM in experiment [2].

As to `CNC(=O)C12CC(NS(=O)(=O)c3ccc(C)c(-c4cnc(N)c(-n5cncn5)n4)c3)(C1)C2` [Example 32, 3-(3-(5-Amino-6-(1H-1,2,4-triazol-1-yl)pyrazin-2-yl)-4-methylphenylsulfonamido)-N-methylbicyclo[1.1.1]pentane-1-carboxamide trifluoroacetate Salt], the IC50 in experiment [1] is below 2000 nM; in experiment [2], at most 100 nM.

For `[2H]C([2H])([2H])c1ccc(S(=O)(=O)NC23CNC(C2)C3)cc1-c1cnc(N)c(-n2nccn2)n1` [Example 52, 3-(5-Amino-6-(2H-1,2,3-triazol-2-yl)pyrazin-2-yl)-N-(2-azabicyclo[2.1.1]hexan-4-yl)-4-(methyl-d3)benzenesulfonamide Trifluoroacetate Salt], the IC50 in experiment [1] and in experiment [2] was at most 500 nM in each case.

As for `[2H]C([2H])([2H])c1ccc(S(=O)(=O)NC23CC(CO)(C2)C3)cc1-c1cnc(N)c(-n2nccn2)n1` [Example 51, 3-(5-Amino-6-(2H-1,2,3-triazol-2-yl)pyrazin-2-yl)-N-(3-(hydroxymethyl)bicyclo[1.1.1]pentan-1-yl)-4-(methyl-d3)benzenesulfonamide Trifluoroacetate Salt], the figures for the IC50 in experiment [1] and in experiment [2] were below 2000 nM and at most 100 nM, respectively.

For the compound `[2H]C([2H])([2H])c1ccc(S(=O)(=O)NC23CC(C2)N(C(C)C)C3)cc1-c1cnc(N)c(-n2cncn2)n1` [Example 60, 3-(5-Amino-6-(1H-1,2,4-triazol-1-yl)pyrazin-2-yl)-N-(2-isopropyl-2-azabicyclo[2.1.1]hexan-4-yl)-4-(methyl-d3)benzenesulfonamide Trifluoroacetate Salt], the results for the IC50 in experiment [1] and in experiment [2] were at most 500 nM and at most 100 nM, respectively.

In the case of `Cc1ccc(S(=O)(=O)NC23CC(C(=O)N(C)C)(C2)C3)cc1-c1cnc(N)c(-n2cncn2)n1` [Example 33, 3-(3-(5-Amino-6-(1H-1,2,4-triazol-1-yl)pyrazin-2-yl)-4-methylphenylsulfonamido)-N,N-dimethylbicyclo[1.1.1]pentane-1-carboxamide trifluoroacetate salt], the IC50 in experiment [1] was at most 500 nM; in experiment [2] it was at most 100 nM.

Consider `O=C(O)C(F)(F)F.[2H]C([2H])([2H])c1ccc(S(=O)(=O)NC23CNC(C2)C3)cc1-c1cnc(N)c(-n2cncn2)n1` [Example 53, 3-(5-Amino-6-(1H-1,2,4-triazol-1-yl)pyrazin-2-yl)-N-(2-azabicyclo[2.1.1]hexan-4-yl)-4-(methyl-d3)benzenesulfonamide trifluoroacetate salt], for which the IC50 in experiment [1] was at most 500 nM; in experiment [2], at most 100 nM.

For the compound `Cc1ccc(S(=O)(=O)NC23COC(CO)(C2)C3)cc1-c1cnc(N)c(-c2cn(C)nc2C)c1` [Example 84, 3-(6-amino-5-(1,3-dimethyl-1H-pyrazol-4-yl)pyridin-3-yl)-N-(1-(hydroxymethyl)-2-oxabicyclo[2.1.1]hexan-4-yl)-4-methylbenzenesulfonamide], the IC50 in experiment [1] and in experiment [2] was at most 500 nM each time.
